Active and inactive are the calls of the source. No cut-off for these calls is given here.
How the values were obtained:
THP-1 = assay: Antiproliferative activity against human THP-1 cells assessed as inhibition of cell growth incubated for 72 hrs by MTT assay; type: functional, cell-based; conditions: THP-1, 72 h
KG-1 = assay: Antiproliferative activity against human KG-1 cells assessed as inhibition of cell growth incubated for 72 hrs by MTT assay; type: functional, cell-based; conditions: KG-1, 72 h
U-937 [1] = assay: Antiproliferative activity against human U-937 cells assessed as inhibition of cell growth incubated for 72 hrs by MTT assay; type: functional, cell-based; conditions: U-937, 72 h
SK-OV-3 = assay: Antiproliferative activity against human SK-OV-3 cells assessed as inhibition of cell growth incubated for 72 hrs by MTT assay; type: functional, cell-based; conditions: SK-OV-3, 72 h
[2] = Antiproliferative activity against human SK-OV-3/Taxol cells assessed as inhibition of cell growth incubated for 72 hrs by MTT assay; type: functional, cell-based; conditions: SK-OV-3, 72 h
U-937 [3] = assay: Induction of apoptosis in human U-937 cells assessed as viable cells at 0.5 uM incubated for 48 hrs by Annexin V-FITC/PI staining based flow cytometry (reference value: 93.30 %); type: functional; conditions: read-out: Activity
U-937 [4] = assay: Induction of apoptosis in human U-937 cells assessed as early apoptotic cells at 0.5 uM incubated for 48 hrs by Annexin V-FITC/PI staining based flow cytometry (reference value: 2.72 %); type: functional
U-937 [5] = assay: Induction of apoptosis in human U-937 cells assessed as late apoptotic cells at 0.5 uM incubated for 48 hrs by Annexin V-FITC/PI staining based flow cytometry (reference value: 1.96 %); type: functional
U-937 [6] = assay: Induction of apoptosis in human U-937 cells assessed as necrotic cells at 0.5 uM incubated for 48 hrs by Annexin V-FITC/PI staining based flow cytometry (reference value: 2.03 %); type: functional
U-937 [7] = assay: Induction of apoptosis in human U-937 cells assessed as viable cells at 1 uM incubated for 48 hrs by Annexin V-FITC/PI staining based flow cytometry (reference value: 93.30 %); type: functional; conditions: read-out: Activity
U-937 [8] = assay: Induction of apoptosis in human U-937 cells assessed as early apoptotic cells at 1 uM incubated for 48 hrs by Annexin V-FITC/PI staining based flow cytometry (reference value: 2.72 %); type: functional
U-937 [9] = assay: Induction of apoptosis in human U-937 cells assessed as late apoptotic cells at 1 uM incubated for 48 hrs by Annexin V-FITC/PI staining based flow cytometry (reference value: 1.96 %); type: functional
U-937 [10] = assay: Induction of apoptosis in human U-937 cells assessed as necrotic cells at 1 uM incubated for 48 hrs by Annexin V-FITC/PI staining based flow cytometry (reference value: 2.03 %); type: functional
U-937 [11] = assay: Induction of apoptosis in human U-937 cells assessed as viable cells at 2.5 uM incubated for 48 hrs by Annexin V-FITC/PI staining based flow cytometry (reference value: 93.30 %); type: functional; conditions: read-out: Activity
U-937 [12] = assay: Induction of apoptosis in human U-937 cells assessed as early apoptotic cells at 2.5 uM incubated for 48 hrs by Annexin V-FITC/PI staining based flow cytometry (reference value: 2.72 %); type: functional
U-937 [13] = assay: Induction of apoptosis in human U-937 cells assessed as late apoptotic cells at 2.5 uM incubated for 48 hrs by Annexin V-FITC/PI staining based flow cytometry (reference value: 1.96 %); type: functional
U-937 [14] = assay: Induction of apoptosis in human U-937 cells assessed as necrotic cells at 2.5 uM incubated for 48 hrs by Annexin V-FITC/PI staining based flow cytometry (reference value: 2.03 %); type: functional
U-937 [15] = assay: Induction of apoptosis in human U-937 cells assessed as change in mitochondrial membrane potential at 1 uM incubated for 48 hrs by JC-1 staining based flow cytometry (reference value: 2.20 %); type: functional
U-937 [16] = assay: Induction of apoptosis in human U-937 cells assessed as change in mitochondrial membrane potential at 2.5 uM incubated for 48 hrs by JC-1 staining based flow cytometry (reference value: 2.20 %); type: functional
U-937 [17] = assay: Induction of apoptosis in human U-937 cells assessed as change in mitochondrial membrane potential at 5 uM incubated for 48 hrs by JC-1 staining based flow cytometry (reference value: 2.20 %); type: functional
U-937 [18] = assay: Upregulation of p21 expression in human U-937 cells incubated for 48 hrs by Western blot analysis; type: functional, cell-based
U-937 [19] = assay: Downregulation of Bcl-2 expression in human U-937 cells incubated for 48 hrs by Western blot analysis; type: functional, cell-based
U-937 [20] = assay: Downregulation of Bcl-XL expression in human U-937 cells incubated for 48 hrs by Western blot analysis; type: functional, cell-based; conditions: dose 1-5 µM
U-937 [21] = assay: Downregulation of XIAP expression in human U-937 cells incubated for 48 hrs by Western blot analysis; type: functional, cell-based
U-937 [22] = assay: Downregulation of YAP1 expression in human U-937 cells incubated for 48 hrs by Western blot analysis; type: functional, cell-based; conditions: dose 1-5 µM
U-937 [23] = assay: Downregulation of c-Myc expression in human U-937 cells incubated for 48 hrs by Western blot analysis; type: functional, cell-based; conditions: dose 1-5 µM
[24] = molecular target: Signal transducer and activator of transcription 3 (Homo sapiens) (UniProt P40763); assay: Inhibition of STAT3 phosphorylation in human U-937 cells at 1 to 5 uM incubated for 48 hrs by Western blot analysis; type: cell-based; conditions: dose 1-5 µM
Sequence of Signal transducer and activator of transcription 3 (Homo sapiens) (P40763 whole entry): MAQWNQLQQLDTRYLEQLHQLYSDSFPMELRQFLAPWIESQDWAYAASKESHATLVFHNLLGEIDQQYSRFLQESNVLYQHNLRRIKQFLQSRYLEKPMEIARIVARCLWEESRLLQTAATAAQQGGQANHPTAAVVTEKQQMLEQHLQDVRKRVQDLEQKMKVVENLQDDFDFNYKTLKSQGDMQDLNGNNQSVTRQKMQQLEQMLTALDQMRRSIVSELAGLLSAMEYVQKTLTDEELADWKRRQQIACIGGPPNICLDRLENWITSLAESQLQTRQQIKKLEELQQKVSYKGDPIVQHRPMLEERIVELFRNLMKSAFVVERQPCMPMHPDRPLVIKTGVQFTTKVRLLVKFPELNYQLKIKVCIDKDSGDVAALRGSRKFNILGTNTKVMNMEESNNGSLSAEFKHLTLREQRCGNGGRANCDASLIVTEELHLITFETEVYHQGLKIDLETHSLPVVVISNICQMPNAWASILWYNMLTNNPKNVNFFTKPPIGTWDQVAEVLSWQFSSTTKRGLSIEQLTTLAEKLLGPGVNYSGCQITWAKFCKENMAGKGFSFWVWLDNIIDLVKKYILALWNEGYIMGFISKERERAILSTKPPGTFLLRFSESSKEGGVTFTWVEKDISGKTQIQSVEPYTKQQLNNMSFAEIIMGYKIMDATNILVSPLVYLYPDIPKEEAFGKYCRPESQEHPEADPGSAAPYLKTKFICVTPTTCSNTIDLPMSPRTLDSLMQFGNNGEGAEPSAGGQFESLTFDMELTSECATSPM

In the case of `CCc1nccnc1C(=O)/C=C/c1ccc(C#N)cc1`, the IC50 (THP-1) is reported as 0.64 µM, the IC50 (KG-1) is reported as 3.98 µM and the IC50 (U-937 [1]) is reported as 0.18 µM. It also gave an IC50 (SK-OV-3) of 4.71 µM, an IC50 [2] of 5.39 µM and a viability at 0.5 µM (U-937 [3]) of 82.9%. It also gave an Activity (U-937 [4]) of 8.17%, an Activity (U-937 [5]) of 6.11% and an Activity (U-937 [6]) of 2.84%. The viability at 1 µM (U-937 [7]) was 80.3%, the Activity (U-937 [8]) was 10.41% and the Activity (U-937 [9]) was 6.74%. For the same compound, the Activity (U-937 [10]) was 2.6%, the viability at 2.5 µM (U-937 [11]) was 74.2% and the Activity (U-937 [12]) was 14.57%. For the same compound, the Activity (U-937 [13]) was 7.46%, the Activity (U-937 [14]) was 3.82% and the Activity (U-937 [15]) was 3.69%. The Activity (U-937 [16]) was 6.16%, the Activity (U-937 [17]) was 14.12% and the Activity (U-937 [18]) was “Dose-dependent-effect”. The Activity (U-937 [19]) was “Dose-dependent-effect”, the Activity (U-937 [20]) was “Dose-dependent-effect” and the Activity (U-937 [21]) was “Dose-dependent-effect”. The Activity (U-937 [22]) was “Dose-dependent-effect”, the Activity (U-937 [23]) was “Dose-dependent-effect” and the inhibition [24] was “Active”.
Work on `CCc1nccnc1C(=O)/C=C/c1ccc(-c2ccccc2)cc1` yielded an IC50 (THP-1) of 9.14 µM, an IC50 (KG-1) of 22.6 µM and an IC50 (U-937 [1]) of 9.55 µM. The IC50 (SK-OV-3) was 16.9 µM and the IC50 [2] was 16.4 µM.
In the case of `O=C(/C=C/c1ccc(Cl)cc1Cl)c1cnccn1`, the IC50 (THP-1) is reported as 6.54 µM, the IC50 (KG-1) is reported as 6.57 µM and the IC50 (U-937 [1]) is reported as 8.31 µM. For the same compound, the IC50 (SK-OV-3) was > 50 µM and the IC50 [2] was > 50 µM.
Compound `O=C(/C=C/c1cccs1)c1cnccn1` has an IC50 (THP-1) of 10.1 µM, an IC50 (KG-1) of 11.9 µM and an IC50 (U-937 [1]) of 6.18 µM. The IC50 (SK-OV-3) was > 50 µM and the IC50 [2] was > 50 µM.
With `O=C(/C=C/c1cc2ccccc2o1)c1cnccn1` the IC50 (THP-1) was 13.5 µM, the IC50 (KG-1) was 9.66 µM and the IC50 (U-937 [1]) was 10.7 µM. The IC50 (SK-OV-3) was > 50 µM and the IC50 [2] was > 50 µM.
Compound `Cc1nccnc1C(=O)/C=C/c1cccc(F)c1` has an IC50 (THP-1) of 2.12 µM, an IC50 (KG-1) of 1.93 µM and an IC50 (U-937 [1]) of 2.41 µM. The IC50 (SK-OV-3) was 4.39 µM and the IC50 [2] was 5.33 µM.
In the case of `CCN(CC)c1ccc(/C=C/C(=O)c2cnccn2)cc1`, the IC50 (THP-1) is reported as > 50 µM, the IC50 (KG-1) is reported as > 50 µM and the IC50 (U-937 [1]) is reported as > 50 µM. For the same compound, the IC50 (SK-OV-3) was > 50 µM and the IC50 [2] was > 50 µM.
In the case of `CCc1nccnc1C(=O)/C=C/C=C/CCC=C(C)C`, the IC50 (THP-1) is reported as > 50 µM, the IC50 (KG-1) is reported as 35.7 µM and the IC50 (U-937 [1]) is reported as 39.7 µM. The IC50 (SK-OV-3) was > 50 µM and the IC50 [2] was > 50 µM.
Compound `CCc1nccnc1C(=O)/C=C/c1ccc(S(C)(=O)=O)cc1` has an IC50 (THP-1) of 1.38 µM, an IC50 (KG-1) of 3.64 µM and an IC50 (U-937 [1]) of 1.94 µM. For the same compound, the IC50 (SK-OV-3) was 3.42 µM and the IC50 [2] was 6.19 µM.
Compound `N#Cc1ccc(/C=C/C(=O)c2cnccn2)cc1` has an IC50 (THP-1) of 16.2 µM, an IC50 (KG-1) of 15.9 µM and an IC50 (U-937 [1]) of 23.2 µM. For the same compound, the IC50 (SK-OV-3) was 11.2 µM and the IC50 [2] was 12.6 µM.
`CCc1nccnc1C(=O)/C=C/c1ccccc1Cl` showed an IC50 (THP-1) of 4.45 µM, an IC50 (KG-1) of 3.17 µM and an IC50 (U-937 [1]) of 5.91 µM. It also gave an IC50 (SK-OV-3) of 5.06 µM and an IC50 [2] of 5.58 µM.
With `O=C(/C=C/c1ccccc1Cl)c1cnccn1` the IC50 (THP-1) was 11.8 µM, the IC50 (KG-1) was 8.34 µM and the IC50 (U-937 [1]) was 11.4 µM. It also gave an IC50 (SK-OV-3) of 7.18 µM and an IC50 [2] of 10.2 µM.
`CC(C)(C)c1ccc(/C=C/C(=O)c2cnccn2)cc1` showed an IC50 (THP-1) of 16 µM, an IC50 (KG-1) of 13.4 µM and an IC50 (U-937 [1]) of 13.7 µM. For the same compound, the IC50 (SK-OV-3) was 15.5 µM and the IC50 [2] was 12.5 µM.
Work on `CCc1nccnc1C(=O)/C=C/c1ccccc1F` yielded an IC50 (THP-1) of 3.52 µM, an IC50 (KG-1) of 3.07 µM and an IC50 (U-937 [1]) of 2.23 µM. The IC50 (SK-OV-3) was 3.42 µM and the IC50 [2] was 3.67 µM.
`O=C(/C=C/c1ccccc1F)c1cnccn1` showed an IC50 (THP-1) of 11.9 µM, an IC50 (KG-1) of 9.89 µM and an IC50 (U-937 [1]) of 11.9 µM. For the same compound, the IC50 (SK-OV-3) was 3.88 µM and the IC50 [2] was 6.18 µM.
In the case of `CSc1ccc(/C=C/C(=O)c2cnccn2)cc1`, the IC50 (THP-1) is reported as 8.37 µM, the IC50 (KG-1) is reported as 5.56 µM and the IC50 (U-937 [1]) is reported as 7.06 µM. The IC50 (SK-OV-3) was 6.48 µM and the IC50 [2] was 8.03 µM.
Work on `CCc1nccnc1C(=O)/C=C/c1cccc(F)c1` yielded an IC50 (THP-1) of 6.22 µM, an IC50 (KG-1) of 3.47 µM and an IC50 (U-937 [1]) of 0.66 µM. The IC50 (SK-OV-3) was 4.26 µM and the IC50 [2] was 6.34 µM.
`Cc1nccnc1C(=O)/C=C/C=C/c1ccc(F)cc1` gave an IC50 (THP-1) of 45.4 µM, an IC50 (KG-1) of 27.4 µM and an IC50 (U-937 [1]) of 10.3 µM. The IC50 (SK-OV-3) was 10.8 µM and the IC50 [2] was 11.4 µM.
In the case of `O=C(/C=C/c1cccc(Cl)c1Cl)c1cnccn1`, the IC50 (THP-1) is reported as 12.2 µM, the IC50 (KG-1) is reported as 54.8 µM and the IC50 (U-937 [1]) is reported as 19 µM. The IC50 (SK-OV-3) was > 50 µM and the IC50 [2] was > 50 µM.
Compound `CCc1nccnc1C(=O)/C=C/c1ccc(Br)cc1` has an IC50 (THP-1) of 5.34 µM, an IC50 (KG-1) of 9.31 µM and an IC50 (U-937 [1]) of 1.93 µM. The IC50 (SK-OV-3) was 3.88 µM and the IC50 [2] was 5.93 µM.
